In PubChem BioAssay AID2423 (Broad Institute, 2010):
Inconclusive results are not listed. Active and inactive are the calls of the source. No rule for the calls is given here.

System: C. albicans CaCi-8 + fluconazole, Alamar Blue growth, 48 h
Experiment: resistant C. albicans growth inhibition with fluconazole, dose response, CaCi-8 strain, Alamar Blue fluorescence (AID 2423)

Work on `O=C(Nc1nnc(-c2ccc(F)cc2)o1)c1cccc([N+](=O)[O-])c1` yielded an EC50 of 1.01 µM.
`CCCCN(C)S(=O)(=O)c1ccc(C(=O)Nc2nnc(-c3cccs3)o2)cc1` was tested, and the EC50 was > 15 µM (inactive).
Molecule `CCOC(=O)c1ccc(NC(=O)Nc2ccn(C)n2)cc1` has an EC50 of 1.51 µM.
In the case of `Oc1ccc(/C=N/N(c2ccccc2)c2ccccc2)c(O)c1O`, the EC50 is reported as 10.8 µM.
With `O=C(NC(Cc1ccccc1)C(=O)NCc1ccccn1)c1ccco1` (stereo not drawn) the EC50 was > 15 µM (inactive).
In the case of `Cc1cccc(C(=O)NNC(=S)NC(=O)c2cccs2)c1`, the EC50 is reported as 1.46 µM.
For `COC(=O)c1cc(C)sc1NC(=O)c1cccnc1`, the EC50 was 5.89 µM.
In the case of `CC12CCC(C(=O)Nc3ncc([N+](=O)[O-])s3)(OC1=O)C2(C)C` (stereo not drawn), the EC50 is reported as > 16 µM (inactive).
For `COc1cnc(-c2ccccn2)nc1Sc1ccccc1Cl`, the EC50 was > 15 µM (inactive).
`O=C(Nc1cccc(-c2cn3c(n2)SCC3)c1)c1ccc(Br)o1` showed an EC50 of 2.71 µM.
`C=C1C(=O)O[C@@H]2C[C@@H](C)[C@@H]3C4OC4C(=O)[C@@]3(C)[C@@H](O)[C@H]12` (stereo partly drawn) gave an EC50 of 0.219 µM.
Molecule `COc1cc(OC)cc(C(=O)NNC(=O)c2cc3ccccc3cc2O)c1` has an EC50 of 9.18 µM.
`Cc1ccc(Nc2nc(Cl)nc(NC(C)(C)C)n2)cc1` showed an EC50 of 2.62 µM.
In the case of `Cc1cc(C(=O)Nc2nc(-c3ccccn3)cs2)ccc1[N+](=O)[O-]`, the EC50 is reported as 0.96 µM.
For `CCN(CC)C(=O)Cn1c(=O)n(-c2ccccc2)c(=O)c2c3c(sc21)CCC3`, the EC50 was > 16 µM (inactive).
In the case of `CC(C)C(=O)NC(c1cccs1)c1cc([N+](=O)[O-])c2cccnc2c1O` (stereo not drawn), the EC50 is reported as 0.778 µM.
For `C[n+]1c(-c2ccccc2)c2cc(N)ccc2c2ccc(N)cc21`, the EC50 was > 16 µM (inactive).
Work on `CCCC(=O)NC(c1ccc(N(C)C)cc1)c1ccc2cccnc2c1O` (stereo not drawn) yielded an EC50 of 0.627 µM.
With `Cc1ccc(/C=N/NC(=O)C2=NNC(c3ccccc3)(c3ccccc3)C2)c(O)c1` the EC50 was > 16 µM (inactive).
Molecule `CCCCOc1ccc(C(=O)NNC(=S)NC(=O)CC)cc1` has an EC50 of 0.858 µM.
Molecule `O=C(N/N=C/c1ccccc1O)c1cccc(C(F)(F)F)c1` has an EC50 of 1.84 µM.
With `Cc1ccc(NC(=O)NC2CCCCCCC2)c(C)c1` the EC50 was > 16 µM (inactive).
`CN(C)c1cc(N/N=C/c2ccc(Cl)cc2)nc(N(C)C)n1` showed an EC50 of 0.695 µM.
For `C=CCN(CC=C)Cc1c(O)ccc2c(=O)c(-c3ccccc3)coc12`, the EC50 was < 0.12 µM.
For `O=C(NC(c1ccc(Cl)cc1)c1cc(Cl)c2cccnc2c1O)c1cccnc1` (stereo not drawn), the EC50 was 0.329 µM.
`COC(CN(C)C(=O)c1ccc2c(c1)NC(=O)c1ccccc1S2)OC` was tested, and the EC50 was > 15 µM (inactive).
Work on `FC(F)(F)c1ccccc1NC(=S)NN=C1CCCCCC1` yielded an EC50 of 4.95 µM.
`C=C(C)COc1ccc(-c2n[nH]c(C)c2-c2ccccc2)c(O)c1` was tested, and the EC50 was 4.29 µM.
With `COc1cc(SC)ccc1C(=O)OCC(=O)NC1CC1` the EC50 was > 15 µM (inactive).
In the case of `COc1cc(NC(=O)c2ccccc2NS(=O)(=O)c2ccc(Cl)s2)cc(OC)c1`, the EC50 is reported as > 16 µM (inactive).
With `NC1=NC(=O)C(Cc2cccc(Cl)c2Cl)S1` (stereo not drawn) the EC50 was > 16 µM (inactive).
Molecule `Cc1cccc2sc(NNC(=O)c3cc(-c4cccs4)nc4ccccc34)nc12` has an EC50 of 0.583 µM.
`CC(C)(C)c1nnc(NC(=O)CCS(=O)(=O)c2ccccc2)s1` was tested, and the EC50 was 0.943 µM.
`COc1cccc(CN2C(=O)C3(C(C#N)=C(N)OC4=C3C(=O)CCC4)c3ccccc32)c1` (stereo not drawn) showed an EC50 of 2.15 µM.
`O=C(c1ccccc1)c1ccc2nc(-c3ccc(NC(=O)c4ccccc4Br)cc3)[nH]c2c1` gave an EC50 of 0.377 µM.
Molecule `O=C(NNc1nc2ccc(Cl)cc2s1)c1cc(-c2cccs2)nc2ccccc12` has an EC50 of 0.4 µM.
With `O=C1c2ccccc2NC(c2cn[nH]c2-c2ccc(Cl)cc2)N1O` (stereo not drawn) the EC50 was > 16 µM (inactive).
In the case of `COc1ccccc1NS(=O)(=O)c1cc(NC(=O)CCC(=O)c2cccs2)ccc1Cl`, the EC50 is reported as > 15 µM (inactive).
`CCCCN(CCCC)S(=O)(=O)c1ccc(C(=O)Nc2nnc(COC)o2)cc1` was tested, and the EC50 was > 15 µM (inactive).
`O=C(Cc1ccccc1)Nc1nonc1NC(=O)c1ccccc1` was tested, and the EC50 was 0.477 µM.
`Cc1ccc(S(=O)(=O)Nc2ccc(O)c3ncccc23)cc1` gave an EC50 of 3.31 µM.
`O=C(CN1CCCc2ccccc21)N/N=C/c1c(O)ccc2ccccc12` showed an EC50 of 1.2 µM.
Molecule `CC(=O)NC(c1ccccc1)c1cc(Cl)c2cccnc2c1O` (stereo not drawn) has an EC50 of 0.764 µM.
